pIC50: −log10 of the molar value. Marks after values point to notes of the source that are not given here.
How the values were obtained:
PC-3 (p53, del) = assay: MTT cytotoxicity assay, PC-3; format: cell-based; settings: Homo sapiens, 96 hr
Method: (§1) To evaluate the cytotoxic activity of the two compounds, human prostate cancer cells (PC-3, LNCaP, and DU145) were plated into 96-well plate and incubated for 96 hr with various concentrations of desired drugs. During the last 2 hr, MTT (3-(4,5-dimethylthiazol-2-yl)-2,5-diphenyltetrazolium bromide) was added and the dark-blue formazan formed in live cells was dissolved in dimethyl sulfoxide and the absorbance was measured with a FLUOstar Optima microplate reader (BMG LABTECH Inc., Durham, N.C.) at 570 nm. The IC50 was defined as the concentration of a drug that inhibited cell growth by 50% (see Dong et al, supra, and Dong Z, et al. “Organ-specific modulation of steady-state mdr gene expression and drug resistance in murine colon cancer cells” J. Natl. Cancer Inst 1994;86(12):913-20, both references fully incorporated herein by this reference).

DU145 (p53, mt) = assay: MTT cytotoxicity assay, DU145; format: cell-based; settings: Homo sapiens, DU-145, 96 hr
Method: as §1

CT-26 (colon) = assay: MTT cytotoxicity assay, CT-26; format: cell-based; settings: CT26, mouse cells, parental
Method: as §1
(§2) In addition, the present inventors discovered that the compounds could also effectively kill human breast (MCF-7 and MDA435) and melanoma (A375) cells, as well as several lines of mouse tumor cells, with similar potencies (Table 1). Moreover, DL-001 could effectively kill endothelial cells derived from mouse lung and prostate (Table 1). Furthermore, it appears that tumor cells (LNCaP, MCF-7, and A375) that harbor the wildtype p53 tumor suppressor gene were relatively more sensitive to DL-001 (Table 1).

CT-26 (colon, MDR) = assay: MTT cytotoxicity assay, CT-26 MDR; format: cell-based; settings: Mus musculus, CT26, multidrug resistant
Method: as §1, §2

caspase 2 = assay: Fluorometric caspase assay in PC-3MM2 cells, caspase 2; format: cell-based, human; settings: 50 nM, 24 hr
Method: (§3) Taxol is known to kill tumor cells by inducing arrest of cells at […] cell cycle and apoptosis. To identify mechanisms by which DL-001 killed tumor cells, we compared effects of DL-001 and Taxol on PC-3MM2 cells. […] To verify the role of DL-001 in inducing apoptosis, the activity of caspase 2,3,6,8 and 9 was analyzed. PC-3MM2 cells are treated with 50 nM of DL-001, taxol, or vincristine for 24 hr. Caspase activities in the treated cells are assessed by using a fluorometric caspase assay kit (Bio Vision, Mountain View, Calif.).

caspase 3 = assay: Fluorometric caspase assay in PC-3MM2 cells, caspase 3; format: cell-based, human; settings: 50 nM, 24 hr
Method: as §3

caspase 6 = assay: Fluorometric caspase assay in PC-3MM2 cells, caspase 6; format: cell-based, human; settings: 50 nM, 24 hr
Method: as §3

caspase 8 = assay: Fluorometric caspase assay in PC-3MM2 cells, caspase 8; format: cell-based, human; settings: 50 nM, 24 hr
Method: as §3

caspase 9 = assay: Fluorometric caspase assay in PC-3MM2 cells, caspase 9; format: cell-based, human; settings: 50 nM, 24 hr
Method: as §3

LNCaP (p53, wt) = assay: MTT cytotoxicity assay, LNCaP; format: cell-based; settings: Homo sapiens, 96 hr
Method: as §1

MCF-7 (p53, wt) = assay: MTT cytotoxicity assay, MCF-7; format: cell-based; settings: Homo sapiens, MCF7
Method: as §1, §2

MDA435 (p53, mt) = assay: MTT cytotoxicity assay, MDA435; format: cell-based; settings: Homo sapiens
Method: as §1, §2

A375 (p53, wt) = assay: MTT cytotoxicity assay, A375; format: cell-based; settings: Homo sapiens, A-375
Method: as §1, §2

TRAMP (prostate) = assay: MTT cytotoxicity assay, TRAMP; format: cell-based; settings: mouse cells
Method: as §1, §2

4T1 (breast) = assay: MTT cytotoxicity assay, 4T1; format: cell-based; settings: mouse cells
Method: as §1, §2

B16 (melanoma) = assay: MTT cytotoxicity assay, B16; format: cell-based; settings: mouse cells
Method: as §1, §2

UV2237 (fibrosarcoma) = assay: MTT cytotoxicity assay, UV2237; format: cell-based; settings: mouse cells
Method: as §1, §2

[1] = test system: mouse endothelial cells, lung; assay: MTT cytotoxicity assay, lung endothelial cells; format: cell-based; settings: Endothelial cell
Method: as §1, §2

[2] = test system: mouse endothelial cells, prostate; assay: MTT cytotoxicity assay, prostate endothelial cells; format: cell-based; settings: Endothelial cell
Method: as §1, §2

PC-3MM2 tumors = assay: Orthotopic model of PC-3 human prostate cancer cells in nude mice; format: in vivo; settings: for toxic side effects on mice: based on body weight and H & E-stained sections of heart, lung, liver, kidney, spleen
Method: PC-3MM2 cells are implanted into the prostate of nude mice. The therapy begins 3 days later, when tumors are established, by daily intraperitoneal injection of DL-001 at 10 mg/kg or 20 mg/kg of body weight or of DMSO (solvent). Experiments are terminated 3 weeks later.

PC-3MM2 cells = assay: Cell cycle and apoptosis in PC-3MM2 cells; format: cell-based, human
Method: as §3

| Structure (SMILES) | pIC50 (PC-3 (p53, del)) | pIC50 (DU145 (p53, mt)) | pIC50 (CT-26 (colon)) | pIC50 (CT-26 (colon, MDR)) | Fold change of caspase activity compared with that in control cells, caspase 2 (caspase 2) | Fold change of caspase activity compared with that in control cells, caspase 3 (caspase 3) [fold] | Fold change of caspase activity compared with that in control cells, caspase 6 (caspase 6) [fold] | Fold change of caspase activity compared with that in control cells, caspase 8 (caspase 8) [fold] | Fold change of caspase activity compared with that in control cells, caspase 9 (caspase 9) [fold] | toxic side effects on mice (PC-3MM2 tumors) | effect on cell cycle and apoptosis (PC-3MM2 cells) | further results |
| --- | --- | --- | --- | --- | --- | --- | --- | --- | --- | --- | --- | --- |
| CC[C@]1(O)C[C@H]2CN(CCc3c([nH]c4ccccc34)[C@@](C(=O)OC)(c3cc4c(cc3OC)N(C=O)[C@H]3[C@@](O)(C(=O)OC)[C@H](OC(C)=O)[C@]5(CC)C=CCN6CC[C@]43[C@@H]65)C2)C1 [Vincristine, vincristine] | 8.40 | 8.30 | 7.80 | 7.42 | 18 fold | 24 | 1 | 1 | 4 |  |  |  |
| COc1ccc(C(=O)c2cc([N+](=O)O)ccc2N2CCCCC2)cc1 (racemic) [DL-001, (4-Methoxy-phenyl)-(5-nitro-2-piperidin-1-yl-phenyl)-methanone] | 7.49 | 7.55 | 7.41 | 7.41 | 17* fold | 22 | 1 | 1 | 4 | did not produce significant toxic side effects | arrested at S/G2 checkpoint of cell cycle and went into apoptosis | pIC50 (LNCaP (p53, wt)): 7.96; pIC50 (MCF-7 (p53, wt)): 7.77; pIC50 (MDA435 (p53, mt)): 7.52; pIC50 (A375 (p53, wt)): 7.64; pIC50 (TRAMP (prostate)): 7.39; pIC50 (4T1 (breast)): 7.52; pIC50 (B16 (melanoma)): 7.59; pIC50 (UV2237 (fibrosarcoma)): 7.46; pIC50 [1]: 7.35; pIC50 [2]: 7.29; growth of PC-3MM2 tumors in the prostate of nude mice (PC-3MM2 tumors; daily intraperitoneal injection, 10 mg/kg or 20 mg/kg (DL-001), from day 3, terminated 3 weeks later): inhibited growth of PC-3MM2 tumors in dose-dependent manner |
| CC(=O)O[C@H]1C(=O)[C@@]2(C)[C@H]([C@H](OC(=O)c3ccccc3)[C@]3(O)C[C@H](OC(=O)[C@H](O)[C@@H](NC(=O)c4ccccc4)c4ccccc4)C(C)=C1C3(C)C)[C@]1(OC(C)=O)CO[C@@H]1C[C@@H]2O [Taxol] | 8.40 | 8.52 | 7.14 | 6.44 | 26 fold | 34 | 1 | 1 | 7 |  | arrested at S/G2 checkpoint of cell cycle and went into apoptosis |  |
| COc1ccc(C(=O)c2cc([N+](=O)O)ccc2N2CCOCC2)cc1 (racemic) [DL-002, (4-Methoxy-phenyl)-(2-morpholin-4-yl-5-nitro-phenyl)-methanone] | 7.52 | 7.52 |  |  |  |  |  |  |  | did not produce significant toxic side effects |  |  |

Source: patent US20070054908A1, “Novel pharmaceutical compositions and methods for treating tumors, including drug-resistant tumors” (priority 2005, published 2007)
